Data as given in paper PMC10025185, “A continuous in silico learning strategy to identify safety liabilities in compounds used in the leather and textile industry” (Archives of Toxicology, 2023).
Where two headings read alike, the source gives them in different places. One block for each molecule: values may come before it.

Legend:
[1] = test system: androgen and oestrogen receptors; experiment: ED assays of androgen and oestrogen receptors (overall experimental ED result); format: cell-based
Description: The transcriptional activation of androgen receptor (AR) assays was carried out by adapting the OECD protocol 458 (OECD [2020]).
MDA-MB-453 cells (8000 cells/well) expressing an AR luciferase reporter were seeded into 384 white plates (Greiner 781098) in culture medium (DMEM (ATCC), 10% foetal bovine serum (Sigma Aldrich), 1% penicillin–streptomycin (Sigma-Aldrich), 75 µg/ml geneticin (Gibco) and incubated overnight at 37 °C 5% CO2 and 95% humidity. After this time, the cell culture medium was discarded and replaced by assay medium (DMEM (ATCC), 0.1% foetal bovine serum (Sigma-Aldrich), and 1% penicillin–streptomycin (Sigma Aldrich)).
For studying a putative agonist effect, compounds were added to the assay plate using an Echo 550 acoustic liquid handler and incubated overnight at 37 °C 5% CO2 and 95% humidity. For studying the putative antagonist effect, compounds were added using an Echo 550 acoustic liquid handler and incubated for 15 min at 37 °C 5% CO2 and 95% humidity. Then, 1 nM 5α-dihydrotestosterone (DHT) was added, and the cell plate was incubated overnight at 37 °C, 5% CO2, and 95% humidity. After compound incubation, the cell medium was removed, 5 µl of lysis buffer 1X (Promega) was added, and the cell plate was incubated with agitation 15 min at room temperature. A freeze–thaw cycle of 10 min at −80 °C and room temperature was performed. Then 25 µl of luciferase assay reagent (Promega) was added and luminescence was determined on an EnSpire plate reader (Perkin Elmer). Data was fitted to a four-parameter sigmoidal model with Prism 5.1 (Graphpad, Inc).
The transcriptional activation of oestrogen receptor (ER) assay was carried out by adapting the OECD protocol 455 (OECD [2021]) and the method of Li et al. ([2013]).
ER luciferase reporter T47D cells (5000 cells/well) were seeded into 384 white plates (Greiner 781098) in culture medium (RPMI 1640 (Thermo Fisher Scientific 52400), 10% foetal bovine serum (Sigma Aldrich F9665), 1% penicillin–streptomycin (Sigma-Aldrich P0781), 75 µg/ml Geneticin (Gibco 10131)) and incubated overnight at 37 °C and 5% CO2. The following day, the cell culture medium was discarded and replaced by assay medium (RPMI 1640 (Thermo Fisher Scientific 52,400), 0.1% foetal bovine serum (Sigma Aldrich F9665), and 1% penicillin–streptomycin (Sigma Aldrich P0781).
The assay was performed as stated before for the AR assay using 17β-estradiol as agonist instead of DHT.
ED was assessed by transactivation in vitro assays to identify agonists and antagonists of the androgen and oestrogen receptors.
Also, the experimental group analysed the endocrine-disrupting activity for the CMR compounds.

[2] = test system: CHO-K1 (Chinese hamster ovary cells); format: cell-based
Description: The in vitro micronucleus test is a genotoxicity test for the detection of micronuclei in the cytoplasm of interphase cells. Tests were conducted in the presence of the cytokinesis blocker cytochalasin B with three different treatment schedules: (i) short treatment for 6 h; (ii) short treatment for 6 h in the presence of an exogenous source of metabolic activation (cofactor supplemented S9 liver fraction); and (iii) extended treatment for 24 h.
CHO-K1 (Chinese hamster ovary cells, ATCC Item Number CCL-61) were cultured in DMEM F-12 containing 10% foetal bovine serum and 100 units/ml penicillin/100 μg/ml streptomycin (all from Sigma-Aldrich, St Louis, USA). Cells were seeded at 3000 cells/well in a collagen-coated 96-well plate in 100 μl. After 24 h, cells were incubated with CellTracker Orange CMTMR cellular dye solution (Invitrogen, Waltham, USA) for 1 h. Cells were then treated with compounds for 6 h, with or without S9 metabolic activation, or 24 h without S9 metabolic activation. […] After the 6-h compound treatment, cells were incubated with cytochalasin B (Alfa Aesar, Kandel, Germany) for 24 h. In case of 24-h treatment, cells were incubated with compounds in the presence of cytochalasin B and harvested after treatment. Benzo(a)pyrene, mitomycin C, and colchicine were used as positive controls for 6 h, with or without metabolic activation or 24 h treatments, respectively. […] After several washes with BupH-modified DPBS, cells were analysed in an Operetta High-Content Imaging System (PerkinElmer, Waltham, USA). […] Statistical significance was determined with the ANOVA test with significance level adjusted to p < 0.05.

zebrafish embryos [3] = conditions: in vivo
Description: (§1) Zebrafish embryos obtained and maintained as described previously for toxicity determination were used to determine (I) terato-carcinogenesis assayed as previously informed (Selderslaghs et al. [2009], [2012]) with modifications. In brief, embryos were incubated for 0 hpf up to 120 hpf in the presence and absence of tested compounds. Each condition was assayed in triplicate with 12 embryos per condition per replicate. The appearance of selected characteristics and malformations with respect to normal development were quantified for the eyes, otoliths, heart, circulation, hatching, skeletal deformities, and body position. For each concentration tested, we assessed the mortality and the presence of malformations at 24, 48, 72, 96, and 120 hpf using a light microscope. When possible, the lethal effects (LC50) and terato-carcinogenic effects (EC50) were determined using the ToxRat software. Based on these values, a teratogenic index (TI) was calculated as LC50/EC50. Based on previous studies, we considered a compound to be a teratogen when TI > 2 at 120 hpf. When no TI could be calculated due to no malformations induction to a degree extensive enough to calculate the EC50 in the presence of high toxicity, the compound was considered a non-teratogen. (II) Neurotoxicity was assayed by evaluating the locomotor activity in embryos exposed to the tested compounds from 0 to 120 hpf using Zebrabox and Zebralab (ViewPoint). We tested three concentrations (24 embryos per concentration) below the NOEC to avoid readily toxic concentrations. After incubation with tested compounds for 120 hs in 96-well plates, the activity of larvae in response to transitions from dark to light was evaluated. The protocol involved an initial 10 min acclimation period inside the Zebrabox, followed by three cycles of light–dark of 10 min each. After the end of each cycle, the integrated activity of each embryo was registered. Statistical analysis was done using ANOVA, followed by the Tukey post hoc test. Differences were considered significant when p < 0.05. Dead embryos were not considered in the analysis. (III) The endocrine-disrupting effect in zebrafish embryos was assayed by real-time PCR as previously reported (Jarque et al. [2019]) with modifications. In brief, 0 hpf embryos (12 embryos per condition in triplicate) were incubated with selected compounds for up to 120 hpf. After incubation, treated (embryos incubated at the concentration right below the NOEC) and control embryos were collected in RNA later and kept at − 20°C until use. RNA was extracted from the samples using the RNeasy Mini Kit (QIAGEN) and was followed by cDNA synthesis using random primers and the AffinityScript Multi Temperature cDNA Synthesis Kit (Agilent Technologies). Finally, real-time PCR was performed for eight target genes to obtain data on the estrogenic (cytochrome P450 family 19 subfamily A member 1: cyp19a1b, and vitellogenin: vtg1), androgenic (cytochrome P450 family 2 subfamily W member 1: cyp2k22, and cytosolic sulphotransferase 3: sult2st3), and thyroid hormone (thyroid peroxidase: tpo, thyroid hormone receptor alpha: tra, transthyretin: ttr, and iodothyronine deiodinase 2: dio2) effect of the tested compounds. Significant changes in gene expression between controls and treated samples were considered as a potential endocrine-disrupting effect.

zebrafish embryos [4] = conditions: in vivo; remark: listed apart in the source
Text: In REACH, most of the mammalian tests for chemical safety assessment are related to reproductive toxicity (ECHA [2020]; Rovida and Hartung [2009]; Sellick [2011]) and consider complex molecular and cellular mechanisms determined in long-term experiments with very low throughput. To avoid the use of animals and to assay reproductive toxicity in a relevant 'non-animal' model adhering to the 3Rs rule, we used zebrafish embryos up to 120 hpf. Up to this developmental stage, the embryos are not considered animals according to European legislation (Sellick [2011]). When they reach the stage of independent feeding, zebrafish embryos become subject to regulations for animal experimentation. We performed a set of previously described experiments to cover a wide range of potential reprotoxic effects, including terato-carcinogenesis, developmental neurotoxicity, and endocrine disruption.
as §1, with “Technologies).” for “Technologies). Finally, real-time PCR was performed for eight target genes to obtain data on the estrogenic (cytochrome P450 family 19 subfamily A member 1: cyp19a1b, and vitellogenin: vtg1), androgenic (cytochrome P450 family 2 subfamily W member 1: cyp2k22, and cytosolic sulphotransferase 3: sult2st3), and thyroid hormone (thyroid peroxidase: tpo, thyroid hormone receptor alpha: tra, transthyretin: ttr, and iodothyronine deiodinase 2: dio2) effect of the tested compounds. Significant changes in gene expression between controls and treated samples were considered as a potential endocrine-disrupting effect.”

[5] = logKow as a measure of bioaccumulation, extracted from public databases; format: physicochemical; conditions: yes/no by logKow, REACH cut off 4,5
[6] = parameters: method as in earlier work; conditions: ref https://comptox.epa.gov/dashboard, https://echa.europa.eu/es/information-on-chemicals, cited from earlier work
Bhas 42 cell line = experiment: Bhas 42 cell transformation assay (carcinogenesis); format: cell-based
Description: This assay was carried out by adapting the in vitro Bhas 42 cell transformation assay method described in the OECD Guidance Document No. 231 ([2017]) based on the work of Sasaki et al. ([2014]).
It consists of two assays with a different test compound addition schedule to identify compounds with initiating activity (tumour initiators) or promoting activity (tumour promoters). Previously, a cell growth assay for 7 days is performed to set the assay doses of the CTA and another cell growth assay is concurrently performed to the CTA to verify that the selected doses meet the acceptance criteria for the tests.
The carcinogenesis potential of the compound was assayed by means of measuring the frequency of transformed foci (morphologically altered cells that form discrete anchorage-independent colonies) in the Bhas 42 cell line, which can be extrapolated to an assessment of carcinogenic potential. In the transformation assay, the incubation of compounds with two different treatment schedules allowed to identify the initiating or promoting carcinogenic potential of the compounds.

SMILES: Cc1cc(N)ccc1N.O=S(=O)(O)O [2,5-Diaminotoluene sulphate]
Experimental result [1]: No

SMILES: CC(Cl)C(=O)c1ccc(Cl)cc1 (centres unmarked) [2-Chloro-1-(4-chlorophenyl)propan-1-one]
Micronucleus assay (M) ([2]; 6 h with or without S9, 24 h without S9): Negative

Experimental result [1]: Yes
SMILES: C=Cc1ccccn1 [2-Ethenylpyridine]

SMILES: CC1=CC(=O)[C@@H](C(C)C)CC1 [(R)-6-(isopropyl)-3-methylcyclohex-2-en-1-one]
Reprotoxicity (R) Endocrine disruptor (zebrafish embryos [3]): No | reduction of embryo integrated activity (zebrafish embryos [3]): up to 80% | Reprotoxicity (R) Teratogen (zebrafish embryos [4]): No | Micronucleus assay (M) [2]: Negative

Experimental result [1]: No
SMILES: CC(C)[C@H]1CC[C@H](C)C[C@@H]1O [Cyclohexanol, 5-methyl-2-(1-methylethyl)-, (1S,2R,5S)-]

SMILES: C=C(C)C(=O)O [Methacrylic acid]
Bioaccumulation [5]: No | Bioaccumulation (logKow) ([6]; experimental value): 0.93

SMILES: COC(=O)C=Cc1ccccc1 [Methyl cinnamate]
Bioaccumulation [5]: No | Bioaccumulation (logKow) ([6]; experimental value): 2.62

Experimental result [1]: Yes
SMILES: CCCCCC1C(=O)CCC1CC(=O)OC (centres unmarked) [Methyl dihydrojasmonate]

SMILES: CCNC(N)=O [N-Ethylurea]
Bioaccumulation [5]: No | Bioaccumulation (logKow) ([6]; experimental value): -0.74

SMILES: C=CC(=O)NC(C)C [N-Isopropylacrylamide]
Bioaccumulation [5]: No | Bioaccumulation (logKow) ([6]; predicted value): 0.41

SMILES: O=[N+]([O-])c1ccccc1 [Nitrobenzene]
Bioaccumulation [5]: No | Bioaccumulation (logKow) ([6]; experimental value): 1.85

Experimental result [1]: Yes
SMILES: c1ccc2c(c1)ccc1ccccc12 [Phenanthrene]

SMILES: O=[PH](O)O [Phosphonic acid]
Experimental result [1]: No | Carcinogen (C) (Bhas 42 cell line): No

SMILES: C#CCBr [Propargyl bromide]
Experimental result ([1]; endocrine disruptor yes/no): Yes
